The values that follow come from patent publication US7553845B2, “Substituted indolizine 1,2,3,6,7,8 derivatives, FGFs inhibitors, a method for the preparation thereof and pharmaceutical compositions containing said derivatives” (sanofi-aventis, priority 2003, dated 2009).

The subject of series [1] is circulating platelet level. Description: Effect on thrombopenia induced by carboplatin in mice. It is filed as in vivo. The following applies: carboplatin 150 mg/kg intraperitoneally, balbC mice, at nadir. The text has this: Thrombopenia remains a pathology for which there are few effective treatments apart from the transfusion of platelet concentrates and thrombopoietin (Kaushansky, K. New Eng J Med (1998), 339, pp 746-754).
Anticancer chemotherapy constitutes one of the major causes of thrombopenia. One of the agents for chemotherapy, carboplatin, has been widely used to induce thrombopenia in mice and to thus be able to characterize the effect of compounds capable of improving the platelet level such as for example thrombopoietin (Hokom M M et al., Blood (1995), 86, pp 4486-4492).
150 mg/kg of carboplatin were administered intraperitoneally to balbC mice weighing 20 g. A blood sample was collected periodically by retro-orbital puncture and the circulating platelet level is determined by a haematology automated machine (MS9™ from Melet-Schloesing Laboratoires, Cergy-Pontoise, France). Under these conditions, a reversible thrombopenia is observed with a nadir situated 9 to 10 days after the administration of carboplatin (reduction in the circulating platelet level by 50-60%).
The compounds according to the invention or their solvent (a blank—control) are administered orally for 5 days by starting the treatment 7 days before the administration of carboplatin. The experiments were carried out on groups comprising 10-12 mice and the results are expressed as a mean±standard error. […]

Where a name gives a salt, the structure may show the parent alone.

Consider `N.N.O=C([O-])C1(C(=O)[O-])CCC1.[Pt+2]` [carboplatin], for which the “reduction in the circulating platelet level” value in series [1] was 50-60%. For `CCOC(=O)COc1cccn2c(C(=O)c3ccc(N)c(OC)c3)c(C)c(C(=O)OC)c12`, the melting point was 136 °C. The same measure, in the same setting: under `COc1ccc2c(OC)c(C)c(C(=O)c3ccc(N)c(C(=O)O)c3)n2c1` (as salt: Na) (hydrate or solvate) stands 318 °C; under `COc1cc(C(=O)c2c(C)c(-c3cccs3)c3ccccn23)ccc1N` (as salt: HCl) (hydrate or solvate), 219 °C. The molecule `COc1ccc(-c2c(C)c(C(=O)c3ccc([N+](=O)[O-])c(OC)c3)n3cc(C(N)=O)ccc23)cc1` gave a melting point of 267 °C. Still for that read-out and setting: the value for `COC(=O)c1ccc2c(OC)c(C)c(C(=O)c3ccc([N+](=O)[O-])c(OC)c3)n2c1` was 211 °C; that for `COC(=O)c1c(C)c(C(=O)c2ccc([N+](=O)[O-])c(OC)c2)n2cc(OCc3ccccc3)ccc12` was 179 °C. The same measure, in the same setting: the value for `CNc1ccn2c(C(=O)c3ccc(N)c(OC)c3)c(C)c(C(=O)O)c2c1` (as salt: Na) (hydrate or solvate) was 209 to 219 °C.

With `COC(=O)c1c(C)c(C(=O)c2ccc([N+](=O)[O-])c(OC)c2)n2cccc(OCc3ccccc3)c12`, the melting point came to 125 °C. Still for that read-out and setting: under `COC(=O)c1cc(C(=O)c2c(C)c(-c3cccs3)c3ccccn23)ccc1N` stands 162 °C.

In turn, `COC(=O)c1ccc2c(OC)c(C)c(C(=O)c3ccc(N)c(OC)c3)n2c1` displayed a melting point of 193 °C. Still for that read-out and setting: the value for `COC(=O)c1c(C)c(C(=O)c2ccc([N+](=O)[O-])c(OC)c2)n2cccc(O)c12` was 150 °C; that for `COc1cc(C(=O)c2c(C)c(C(=O)O)c3cc(N(C)C)ccn23)ccc1N` (as salt: Na) (hydrate or solvate) was 222 to 227 °C.

The melting point is the temperature, or range, at which the solid turns liquid.
